How the values were obtained:
Assay type in all cases: in vivo
[1] = tested on: Western flower thrips, Frankliniella occidentalis; test: Cotton leaf punch dip bioassay on larval stage 2 nymphs of Western flower thrips (Examples 7A-7D); conditions: Compound I alone, dose rate 0.04 weight %, treated cotton leaf punches
Excerpt: (§1) The method described in Colby S. R., “Calculating Synergistic and Antagonistic Responses of Herbicide Combinations,” Weeds, 1967, 15, 20-22 was used to determine an existence of synergic effect between the sulfoximine-based nAChR agonist compound and the pesticide (I), (II) or any agriculturally acceptable salt thereof in the formulated pesticidal composition. In this method, the percent insect control of the formulated pesticidal composition as observed in the study was compared to the “expected” percent control (E) as calculated by equation (1) (hereinafter “Colby's equation”) below: […]
The active compounds were formulated in a 10% acetone solution with 0.025% non-ionic surfactant, TWEEN® 20. Cotton leaf punches were used for bioassays. Two cotton leaf punches were placed in each solution and left there for 10 minutes. Leaves were taken out of the solution, placed on a piece of filter paper in separated Petri dishes, and air dried. Each leaf disc was considered a repetition. Five larval stage 2 nymphs of Western flower thrips, Frankliniella occidentalis, were infested per repetition.

[2] = tested on: South American brown stink bug, Euschistus heros; test: Bean-piece dip bioassay on third-instar nymphs of South American brown stink bug (Example 6); conditions: Compound I alone, dose rate 0.04 weight %, treated bean pieces
Excerpt: as §1
The active compounds were formulated in a 10% acetone solution with 0.025% non-ionic surfactant, TWEEN® 20. Bioassays were performed for each different active solution. Bean pieces (about one inch-long) were used for the tests. Four bean pieces were placed in each tested active solution and left there for 10 minutes. Bean pieces were taken out of the active solution, and each piece was placed in a well in a 32-well tray and allowed to air dry. Three third-instar nymphs of South American brown stink bug, Euschistus heros, were infested into each well.

[3] = tested on: brown stink bug, Euschistus heros; test: Diet-treatment bioassay on second-instar nymphs of brown stink bug (Examples 5A, 5B); conditions: Compound II alone, dose rate 0.04 weight %, applied to diet
Excerpt: as §1
The percent control of the pesticidal composition against brown stink bug, Euschistus heros, was determined as the “Observed” action, and compared to those obtained by using about 0.04 weight % of Compound II, and using about 0.000156 weight % of sulfoxaflor alone. The “Colby's Expected Action” was calculated using Colby's equation as discussed previously.

SMILES	% Control Three Days After Treatment [1] [%]	% Control Four Days After Treatment [2] [%]	% Control Six Days After Treatment [3]
CCN(C(=O)CCSCCC(F)(F)F)c1cn(-c2cccnc2)nc1Cl [Compound I, N-(3-chloro-1-(pyridin-3-yl)-1H-pyrazol-4-yl)-N-ethyl-3-((3,3,3-trifluoropropyl)thio)propanamide]	0	0	
CCN(C(=O)CC[S+]([O-])CCC(F)(F)F)c1cn(-c2cccnc2)nc1Cl (stereo not drawn) [Compound II, N-(3-chloro-1-(pyridin-3-yl)-1H-pyrazol-4-yl)-N-ethyl-3-((3,3,3-trifluoropropyl)sulfinyl)propanamide]			no control

— patent US9788545B2, “Synergistic pesticidal compositions and related methods” (Dow AgroSciences LLC, priority 2013, dated 2017)
